Reference: patent US20090035306A1 (KALYPSYS, INC., priority 2006, published 2009)

What was measured:
Mice [1] = assay: Glucose tolerance test (GTT), glucose disposal; format: in vivo, mouse; conditions: 30 mg/kg, 2 g/kg dextrose orally at time 0, time 60 min
human TGR5 = target: T1, human TGR5 (Homo sapiens, UniProt Q8TDU6); assay: cAMP production assay in HEK293 cells stably expressing TGR5 (LANCE TR-FRET); format: cell-based; conditions: 30 minutes stimulation, read-out: cAMP Production in 293-TGR5 Cells EC50
T1 construct: expressed in transfected cells
T1 sequence (Q8TDU6 1-330): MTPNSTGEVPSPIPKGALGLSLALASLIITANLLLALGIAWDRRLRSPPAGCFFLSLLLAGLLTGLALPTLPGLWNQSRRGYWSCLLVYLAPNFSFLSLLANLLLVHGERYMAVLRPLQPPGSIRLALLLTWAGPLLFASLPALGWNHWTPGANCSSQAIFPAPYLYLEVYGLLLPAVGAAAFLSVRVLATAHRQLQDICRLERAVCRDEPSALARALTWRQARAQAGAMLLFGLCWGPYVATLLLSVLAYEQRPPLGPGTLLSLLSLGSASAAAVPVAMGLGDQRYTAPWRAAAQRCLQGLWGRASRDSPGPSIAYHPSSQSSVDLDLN
Method in brief: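 HEK293 cells stably transfected with human TGR5, incubated overnight in DMEM with 0.1% FBS, then given IBMX (1 mM final) and stimulated with compounds for 30 minutes. cAMP measured by LANCE TR-FRET after 1-7 h detection at room temperature. EC50 values reported as ≦10 μM (+) or >10 μM (−).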

Mice [2] = assay: In vivo GLP-1 secretion (GLP-1 protocol and GLP-1 assay); set-up: species or system mouse; conditions: 30 mg/kg, portal vein blood
Procedure: Vehicle is CMC-Tween: 0.5% CMC+0.25% Tween 20 at an appropriate ml/kg. Dextrose dose per mouse=2 g dextrose/kg made from 0.5 g/ml stock dextrose solution. Compound 1 dose per mouse=30 mg/kg in CMC/Tween vehicle made from 4 mg/mL stock solution by adding 50 μL DMSO to 20 mg Compound 1, stirring to make a paste, adding 1 ml CMC/Tween with stirring, sonicating for 8 minutes on energy 05, and adjusting to 5 ml with CMC/Tween.
Mice (3 per group) were fasted at 6 am for an experiment at noon. Blood glucose was measured from tail nick blood using an Accucheck—Compact Monitoring Kit (Roche Diagnostics, Indianapolis Ind.). Baseline (time=−15 min) blood glucose concentration was determined for all mice. 2 g/kg dextrose (Hospira, Lake Forest, Ill.) was administered orally at time 0. Terminal blood samples were collected from the mice via portal vein draw (˜500 μL) into EDTA microtainer tubes at the following time points: −15, 0, 3, 6, 9, 12, 15, 20, 30 and 120 min. […] Plasma was stored in −80 C freezer to be analyzed for other chemistry measurements.
A GLP-1(Human, Mouse, Rat) ELA kit was used (ALPCO Diagnostics, Salem, N.H., Cat # 48-GLP-1-160) was used in a 96-well plate. […] 100 μl/well stop solution was added to each well to stop reaction, optical absorbance of wells read at 490 nm, and results calculated.

O=c1c2ccccc2nc(-c2ccc(F)cc2)n1NCc1ccc(Br)cc1 [Example 1]
Plasma Glucose, Mean (Mice [1]): 294.2 mg/dL
EC50 (human TGR5): ≤ 10 µM
Plasma GLP-1, Mean (Mice [2]; 2 g/kg dextrose orally at time 0, time 20 min): 9.61 ng/mL
Plasma GLP-1, Mean (Mice [2]; 2 g/kg dextrose orally at time 0, time −15 min (baseline)): 6.30 ng/mL
